Assay results taken from patent publication US20060269924A1, “Modulation of telomere-initiated cell signaling” (TRUSTEES OF BOSTON UNIVERSITY, priority 2003, published 2006).
{P} = phosphate

Legend:
[1] = system: p53, E2F1 transcription factor; assay: Western analysis of p53 and E2F1 in Jurkat cells; format: cell-based, human; settings: by 24 hours after addition
[2] = system: R2F (p53DD/cdk4^R24C) fibroblasts; assay: SA-β-Gal staining, p53DD/cdk4^R24C R2F fibroblasts; format: cell-based, human; settings: R2F fibroblasts expressing both p53DD and cdk4^R24C, 40 μM, 1 week
Protocol: FIG. 12a: Immunoblot analysis of p53DD and cdk4^R24C expression. Cells were collected for protein analysis by western blot using 30 μg total protein and probed for total p53 and cdk4. Lanes 1, 2, 3 and 4 contain protein samples from R2F, R2F (p53DD), R2F (cdk4^R24C) and R2F (p53DD/cdk4^R24C) fibroblasts, respective. β-actin was used as a loading control. FIG. 12b: Contribution of p53 and pRb pathways to T-oligo-induced SA-β-Gal activity. R2F fibroblasts and derived transductants were treated with diluent or 40 μM T-oligo for one week and then assayed for SA-β-Gal activity. FIG. 12c: Quantitative analysis of SA-β-Gal positive cells. Cells expressing SA-β-Gal activity were counted and presented as percentage of total cells in the cultures. Averages and standard deviations were calculated from 3 representative fields from each of 3 independent experiments.
R2F newborn dermal fibroblasts and derived p53DD, […] and p53DD/cdk4^R24C transductants (a generous gift from Dr. James G. Rheinwald of Harvard Medical School) lack a functional p53 pathway, pRb pathway, and both pathways respectively.
Cells were treated once with diluent alone, 40 μM T-oligo or 40 μM complementary oligo for 1 week without re-feeding. […]
Cells were treated with either diluent or 40 μM T-oligo for 1 week and then assessed for SA-β-Gal activity. […]

[3] = system: HT-1080 fibrosarcoma cells; assay: Telomere length (mean TRF length) assay; format: cell-based, human; settings: HT-1080 cells, 40 μM, 4 days
Protocol: Cells were treated as described in FIG. 13a. Lanes 1, 2, 3 contain genomic DNA from cells treated with diluent (D), T-oligo (T), or complementary oligo (C). Lanes 4 and 5 contain high (H) molecular and low (L) molecular weight standard telomeric DNA.
HT-1080 fibrosarcoma cells were treated with diluent, 40 μM T-oligo or 40 μM complementary oligo for 4 days and then the genomic DNA was isolated using the DNeasy Tissue Kit (Qiagen, Valencia, Calif.). Telomere length was determined using the Telo TTAGGG Telomere Length Assay (Roche Molecular Biochemicals, Indianapolis, Ind.) following the protocol supplied by the manufacturer. […] Terminal restriction fragments (TRF) were detected by chemiluminescence. The mean TRF length was calculated by scanning the exposed X-ray film with a densitometer and calculated as previously described (Harley et al. [1990] Telomeres shorten during ageing of human fibroblasts. Nature 345, 458-460).
To determine the affect of T-oligos on the mean telomere length (MTL) in HT-1080 cells, cells were analyzed after treatment with T-oligo for 4 days which corresponded to the time that the senescent phenotype was readily observed. […] The less than 100 bp difference in calculated MTL is within the range of experimental variation and is not significant.

[4] = system: Saos-2 cells; assay: FACS analysis of Saos-2 cells; format: cell-based; settings: Saos-2 (telomerase negative), 40 μM, 48 hours
Protocol: FIG. 18a: FACS profiles from one representative experiment of three with the percentage and standard deviations of cells in each phase of the cell cycle was calculated from triplicate cultures of each condition. FIG. 18b: Western blots with an antibody specific for phospho-p95/Nbs1. Lanes 1, 2 and 3 contained protein from cells treated with diluent, 11mer-1 or 11mer-2, respectively. Control cells (3 hours) were irradiated with 10 Gy of IR (+), or were sham irradiated (−).
Saos-2 cells are an osteosarcoma cell line that is reportedly telomerase negative and maintain telomeres by the ALT pathway. Saos-2 cell lines were treated with either diluent or 40 μM of the indicated oligonucleotide and cells were collected after 48 hours for FACS analysis. […] The results that the effect of the T-oligo in the telomerase negative cells is identical to the response in telomerase positive malignant cell lines.

Question: With “pGTTAGGGTTAG (DNA, 5' {P}, backbone not given here; listed as Homo sapiens) [Oligonucleotide 11mer-1]” as the substance, how does the “level of the E2F1 transcription factor” value [1] read?
Answer: concomitant increase

Question: And the “p53 level (Western analysis)” value [1]?
Answer: increase

Question: And the SA-β-Gal positive cells [2]?
Answer: 7±1%

Question: What about the “mean telomere length (MTL)” value [3] of the same substance?
Answer: 5.56 kb

Question: What about the S phase arrest [4] of the same substance?
Answer: causes an S phase arrest
